# Data: patent US8835462B2, “Macrocyclic picolinamides as fungicides” (Dow AgroSciences LLC, priority 2012, dated 2014)
# System: Puccinia triticina
# Experiment: Fungicide mobility (dropline mobility test), wheat brown rust (PUCCRT)
# Assay type: in vivo
# Settings: 1 ug/leaf; 1 Day Protectant Mobility; disease-free zone as percent of distance from marked line to leaf tip
# Description: Evaluation of Fungicide Mobility: Wheat Brown Rust (Puccinia Triticina; Synonym: Puccinia recondita f. sp. Tritici; Bayer Code PUCCRT):
# “Yuma” wheat seedlings were used in the test. One mg of compound was dissolved in 9 μl of EC blank (emulsifiable concentrate) and 500 μl of acetone. Acetone was then evaporated overnight by leaving the vial open in a fume hood. Two milliliters of water containing 110 ppm Triton X-100 was added to each vial to prepare application solutions. A […] drop of formulated material was applied to a marked line on the adaxial surface 5 cm from the leaf tip of the primary leaves. The primary leaves were kept in a horizontal position. Each treatment had 6 replicates. Plants were inoculated with PUCCRT 1-day after (1DPM) or 3-day prior to (3DCM) compound applications. When rust was fully expressed on primary leaves on control plants, the zone of treated leaves that was disease-free in the acropetal direction was measured with a ruler and converted to percent of the distance from marked line to leaf tip.
row,SMILES,Dropline Mobility Test PUCCRT 1 DPM
1,COc1ccnc(C(=O)N[C@H]2COC[C@H](Cc3ccccc3)[C@@H](OC(=O)C3CC3)[C@H](C)OC2=O)c1O [Compound 31],B (More than 0-Less than 80)
2,COc1ccnc(C(=O)N[C@H]2COC[C@H](Cc3ccccc3)[C@@H](OC/C=C/C(F)(F)F)[C@H](C)OC2=O)c1OCOC(C)=O [Compound 25],B (More than 0-Less than 80)
3,COc1ccnc(C(=O)N[C@H]2COC[C@H](Cc3ccccc3)[C@@H](OCCC(C)C)[C@H](C)OC2=O)c1OCOC(C)=O [Compound 42],B (More than 0-Less than 80)
4,COc1ccnc(C(=O)N[C@H]2COC[C@H](Cc3ccccc3)[C@@H](OC3CCCCC3)[C@H](C)OC2=O)c1OCOC(C)=O [Compound 35],B (More than 0-Less than 80)
5,COc1ccnc(C(=O)N[C@H]2COC[C@H](Cc3ccccc3)[C@@H](OC3CCCCC3)[C@H](C)OC2=O)c1O [Compound 29],B (More than 0-Less than 80)
6,CCCC(C)O[C@@H]1[C@@H](Cc2ccccc2)COC[C@H](NC(=O)c2nccc(OC)c2OCOC(C)=O)C(=O)O[C@H]1C (stereo partly drawn) [Compound 24],B (More than 0-Less than 80)
7,COc1ccnc(C(=O)N[C@H]2COC[C@H](Cc3ccccc3)[C@@H](OCC(F)F)[C@H](C)OC2=O)c1O [Compound 43],A (80-100)
8,COc1ccnc(C(=O)N[C@H]2COC[C@H](Cc3ccccc3)[C@@H](Oc3ccccc3)[C@H](C)OC2=O)c1O [Compound 33],B (More than 0-Less than 80)

# Same assay, conditions: 1 ug/leaf; 3 Day Curative Mobility; disease-free zone as percent of distance from marked line to leaf tip
row,SMILES,Dropline Mobility Test PUCCRT 3 DCM
1,COc1ccnc(C(=O)N[C@H]2COC[C@H](Cc3ccccc3)[C@@H](OC(=O)C3CC3)[C@H](C)OC2=O)c1O [Compound 31],B (More than 0-Less than 80)
2,COc1ccnc(C(=O)N[C@H]2COC[C@H](Cc3ccccc3)[C@@H](OCCC(C)C)[C@H](C)OC2=O)c1OCOC(C)=O [Compound 42],B (More than 0-Less than 80)
3,COc1ccnc(C(=O)N[C@H]2COC[C@H](Cc3ccccc3)[C@@H](OC3CCCCC3)[C@H](C)OC2=O)c1O [Compound 29],B (More than 0-Less than 80)
4,CCCC(C)O[C@@H]1[C@@H](Cc2ccccc2)COC[C@H](NC(=O)c2nccc(OC)c2OCOC(C)=O)C(=O)O[C@H]1C (stereo partly drawn) [Compound 24],B (More than 0-Less than 80)
5,COc1ccnc(C(=O)N[C@H]2COC[C@H](Cc3ccccc3)[C@@H](OCC(F)F)[C@H](C)OC2=O)c1O [Compound 43],B (More than 0-Less than 80)

# System: Mycosphaerella graminicola; Anamorph: Septoria tritici
# Experiment: Leaf blotch of wheat (SEPTTR) fungicidal activity on wheat seedlings
# Assay type: in vivo
# Settings: Zymoseptoria tritici, 24 h, 1 Day Protectant, read-out: Disease Control SEPTTR 1 DP
# Description: Evaluation of Fungicidal Activity: Leaf Blotch of Wheat (Mycosphaerella Graminicola; Anamorph: Septoria tritici; Bayer Code […]) Technical grades of materials were dissolved in acetone, which were then mixed with nine volumes of water containing 110 ppm Triton X-100. The fungicide solutions were applied onto wheat seedlings using an automated booth sprayer to run-off. All sprayed plants were allowed to air dry prior to further handling. Wheat plants (variety Yuma) were grown from seed in a greenhouse in 50% mineral soil/50% soil-less Metro mix until the first leaf was fully emerged, with 7-10 seedlings per pot. These plants were inoculated with an aqueous spore suspension of Septoria tritici either prior to or after fungicide treatments. After inoculation the plants were kept in 100% relative humidity (one day in a dark dew chamber followed by two to three days in a lighted dew chamber at 20° C.) to permit spores to germinate and infect the leaf. The plants were then transferred to a greenhouse set at 20° C. for disease to develop. When disease symptoms were fully expressed on the 1st leaves of untreated plants, infection levels were assessed on a scale of 0 to 100 percent disease severity. Percent disease control was calculated using the ratio of disease severity on treated plants relative to untreated plants.
row,SMILES,pest or weed control at 100 ppm [%]
1,COc1ccnc(C(=O)N[C@H]2COC[C@H](Cc3ccccc3)[C@@H](OC(=O)C3CC3)[C@H](C)OC2=O)c1O [Compound 31],80 to 100
2,COc1ccnc(C(=O)N[C@H]2COC[C@H](Cc3ccccc3)[C@@H](OC/C=C/C(F)(F)F)[C@H](C)OC2=O)c1OCOC(C)=O [Compound 25],80 to 100
3,COc1ccnc(C(=O)N[C@H]2COC[C@H](Cc3ccccc3)[C@@H](OCCC(C)C)[C@H](C)OC2=O)c1OCOC(C)=O [Compound 42],80 to 100
4,COc1ccnc(C(=O)N[C@H]2COC[C@H](Cc3ccccc3)[C@@H](OC3CCCCC3)[C@H](C)OC2=O)c1OCOC(C)=O [Compound 35],80 to 100
5,COc1ccnc(C(=O)N[C@H]2COC[C@H](Cc3ccccc3)[C@@H](OC3CCCCC3)[C@H](C)OC2=O)c1O [Compound 29],0 to 80
6,CCCC(C)O[C@@H]1[C@@H](Cc2ccccc2)COC[C@H](NC(=O)c2nccc(OC)c2OCOC(C)=O)C(=O)O[C@H]1C (stereo partly drawn) [Compound 24],80 to 100
7,COc1ccnc(C(=O)N[C@H]2COC[C@H](Cc3ccccc3)[C@@H](OCC(F)F)[C@H](C)OC2=O)c1O [Compound 43],80 to 100
8,COc1ccnc(C(=O)N[C@H]2COC[C@H](Cc3ccccc3)[C@@H](Oc3ccccc3)[C@H](C)OC2=O)c1O [Compound 33],80 to 100

# Same assay, conditions: Zymoseptoria tritici, 72 h, 3 Day Curative, read-out: Disease Control SEPTTR 3 DC
row,SMILES,pest or weed control at 100 ppm [%]
1,COc1ccnc(C(=O)N[C@H]2COC[C@H](Cc3ccccc3)[C@@H](OC(=O)C3CC3)[C@H](C)OC2=O)c1O [Compound 31],80 to 100
2,COc1ccnc(C(=O)N[C@H]2COC[C@H](Cc3ccccc3)[C@@H](OC/C=C/C(F)(F)F)[C@H](C)OC2=O)c1OCOC(C)=O [Compound 25],80 to 100
3,COc1ccnc(C(=O)N[C@H]2COC[C@H](Cc3ccccc3)[C@@H](OCCC(C)C)[C@H](C)OC2=O)c1OCOC(C)=O [Compound 42],80 to 100
4,COc1ccnc(C(=O)N[C@H]2COC[C@H](Cc3ccccc3)[C@@H](OC3CCCCC3)[C@H](C)OC2=O)c1OCOC(C)=O [Compound 35],80 to 100
5,COc1ccnc(C(=O)N[C@H]2COC[C@H](Cc3ccccc3)[C@@H](OC3CCCCC3)[C@H](C)OC2=O)c1O [Compound 29],80 to 100
6,CCCC(C)O[C@@H]1[C@@H](Cc2ccccc2)COC[C@H](NC(=O)c2nccc(OC)c2OCOC(C)=O)C(=O)O[C@H]1C (stereo partly drawn) [Compound 24],80 to 100
7,COc1ccnc(C(=O)N[C@H]2COC[C@H](Cc3ccccc3)[C@@H](OCC(F)F)[C@H](C)OC2=O)c1O [Compound 43],80 to 100
8,COc1ccnc(C(=O)N[C@H]2COC[C@H](Cc3ccccc3)[C@@H](Oc3ccccc3)[C@H](C)OC2=O)c1O [Compound 33],80 to 100

# System: Puccinia triticina
# Experiment: Wheat brown rust (PUCCRT) fungicidal activity on wheat seedlings
# Assay type: in vivo
# Settings: 24 h, 1 Day Protectant, read-out: Disease Control PUCCRT 1 DP
# Description: Technical grades of materials were dissolved in acetone, which were then mixed with nine volumes of water containing 110 ppm Triton X-100. The fungicide solutions were applied onto wheat seedlings using an automated booth sprayer to run-off. All sprayed plants were allowed to air dry prior to further handling. Wheat plants (variety Yuma) were grown from seed in a greenhouse in 50% mineral soil/50% soil-less Metro mix until the first leaf was fully emerged, with 7-10 seedlings per pot. These plants were inoculated with an aqueous spore suspension of Septoria tritici either prior to or after fungicide treatments. After inoculation the plants were kept in 100% relative humidity (one day in a dark dew chamber followed by two to three days in a lighted dew chamber at 20° C.) to permit spores to germinate and infect the leaf. The plants were then transferred to a greenhouse set at 20° C. for disease to develop. When disease symptoms were fully expressed on the 1st leaves of untreated plants, infection levels were assessed on a scale of 0 to 100 percent disease severity. Percent disease control was calculated using the ratio of disease severity on treated plants relative to untreated plants. Evaluation of Fungicidal Activity: Wheat Brown Rust (Puccinia triticina; Synonym: Puccinia recondita f. sp. tritici; Bayer Code PUCCRT) Wheat plants (variety Yuma) were grown from seed in a greenhouse in 50% mineral soil/50% soil-less Metro mix until the first leaf was fully emerged, with 7-10 seedlings per pot. These plants were inoculated with an aqueous spore suspension of Puccinia triticina either prior to or after fungicide treatments. After inoculation the plants were kept in a dark dew room at 22° C. with 100% relative humidity overnight to permit spores to germinate and infect the leaf. The plants were then transferred to a greenhouse set at 24° C. for disease to develop. Fungicide formulation, application and disease assessment followed the procedures as described in the Example A.
row,SMILES,pest or weed control at 100 ppm [%]
1,COc1ccnc(C(=O)N[C@H]2COC[C@H](Cc3ccccc3)[C@@H](OC(=O)C3CC3)[C@H](C)OC2=O)c1O [Compound 31],80 to 100
2,COc1ccnc(C(=O)N[C@H]2COC[C@H](Cc3ccccc3)[C@@H](OC/C=C/C(F)(F)F)[C@H](C)OC2=O)c1OCOC(C)=O [Compound 25],80 to 100
3,COc1ccnc(C(=O)N[C@H]2COC[C@H](Cc3ccccc3)[C@@H](OCCC(C)C)[C@H](C)OC2=O)c1OCOC(C)=O [Compound 42],80 to 100
4,COc1ccnc(C(=O)N[C@H]2COC[C@H](Cc3ccccc3)[C@@H](OC3CCCCC3)[C@H](C)OC2=O)c1OCOC(C)=O [Compound 35],80 to 100
5,COc1ccnc(C(=O)N[C@H]2COC[C@H](Cc3ccccc3)[C@@H](OC3CCCCC3)[C@H](C)OC2=O)c1O [Compound 29],80 to 100
6,CCCC(C)O[C@@H]1[C@@H](Cc2ccccc2)COC[C@H](NC(=O)c2nccc(OC)c2OCOC(C)=O)C(=O)O[C@H]1C (stereo partly drawn) [Compound 24],80 to 100
7,COc1ccnc(C(=O)N[C@H]2COC[C@H](Cc3ccccc3)[C@@H](OCC(F)F)[C@H](C)OC2=O)c1O [Compound 43],80 to 100
8,COc1ccnc(C(=O)N[C@H]2COC[C@H](Cc3ccccc3)[C@@H](Oc3ccccc3)[C@H](C)OC2=O)c1O [Compound 33],80 to 100

# Same assay, conditions: 72 h, 3 Day Curative, read-out: Disease Control PUCCRT 3 DC
row,SMILES,pest or weed control at 100 ppm [%]
1,COc1ccnc(C(=O)N[C@H]2COC[C@H](Cc3ccccc3)[C@@H](OC(=O)C3CC3)[C@H](C)OC2=O)c1O [Compound 31],80 to 100
2,COc1ccnc(C(=O)N[C@H]2COC[C@H](Cc3ccccc3)[C@@H](OC/C=C/C(F)(F)F)[C@H](C)OC2=O)c1OCOC(C)=O [Compound 25],80 to 100
3,COc1ccnc(C(=O)N[C@H]2COC[C@H](Cc3ccccc3)[C@@H](OCCC(C)C)[C@H](C)OC2=O)c1OCOC(C)=O [Compound 42],80 to 100
4,COc1ccnc(C(=O)N[C@H]2COC[C@H](Cc3ccccc3)[C@@H](OC3CCCCC3)[C@H](C)OC2=O)c1OCOC(C)=O [Compound 35],80 to 100
5,COc1ccnc(C(=O)N[C@H]2COC[C@H](Cc3ccccc3)[C@@H](OC3CCCCC3)[C@H](C)OC2=O)c1O [Compound 29],80 to 100
6,CCCC(C)O[C@@H]1[C@@H](Cc2ccccc2)COC[C@H](NC(=O)c2nccc(OC)c2OCOC(C)=O)C(=O)O[C@H]1C (stereo partly drawn) [Compound 24],80 to 100
7,COc1ccnc(C(=O)N[C@H]2COC[C@H](Cc3ccccc3)[C@@H](OCC(F)F)[C@H](C)OC2=O)c1O [Compound 43],80 to 100
8,COc1ccnc(C(=O)N[C@H]2COC[C@H](Cc3ccccc3)[C@@H](Oc3ccccc3)[C@H](C)OC2=O)c1O [Compound 33],80 to 100
